This is an account of results in patent US20150197492A1, “NOVEL INDENO[1,2-c]QUINOLIN-11-ONE DERIVATIVES, PREPARATION METHOD AND APPLICATION THEREOF” (National Defense Medical Center, priority 2014, published 2015).

One data set in a line: Solubility in DMSO. The note with it: order SJ-2<SJ-24<SJ-3<SJ-11. The data set is classed as physicochemical. The text has this: The solubility of the four compounds in DMSO is poor, SJ-2<SJ-24<SJ-3<SJ-11, and therefore it is estimated and this is the reason why the three compounds which have previously proven to be effective against PC-3 cell line by SRB assays are ineffective in this experiment.

In a further data set the test system is HOP-92. The data set can be described thus: cells. The format is cell-based. The note with it: for growth percentage: HOP-92 (Non-Small Cell Lung Cancer), 10 μM, 48 hours.
A further data set relates to SK-MEL-2. The data set is described as follows: cells. The note with it: for growth percentage: SK-MEL-2 (Melanoma), 10 μM, 48 hours; for GI50 / CC50: Homo sapiens; for GI50 / CC50 / TGI: Melanoma SK-MEL-2; for CC50: read-out: LC50 (the source's name). The data set is classed as cell-based.
The test system of another data set is 60 cancer cell lines. The data set can be described thus: NCI five-dose level screening test, second stage (GI50, TGI, LC50). The data set is classed as cell-based. The note with it: for Subpanel MID^b (average sensitivity of all cell line of a particular subpanel) / MID^a (average sensitivity of all cell line): GI50; for MID^a (average sensitivity of all cell line): all cell lines. From the text:
From the results, compounds SJ-3 (NSC 772864) and SJ-10 (NSC 772862) were selected by NCI for a five-dose level screening test and the mean growth percentage of the 60 cancer cell lines for the two compounds are 62.4 and −14.37, respectively. […] A summary of the NCI data provides information on the inhibition effect of various compound in different cancer cell lines (FIGS. 3 to 16 and Tables 3 to 8). […] Table 9 indicates the GI50, TGI and LC50 of the NCI data of TC-XCl, SJ-3 and SJ-10 NCI.

The next data set has as its system EKVX. The data set can be described thus: NCI cancer cell cytotoxicity assay, Non-Small Cell Lung Cancer EKVX. The format is cell-based. The note with it: 10 μM, 48 hours.
Setting [1] is: Homo sapiens, Non-Small Cell Lung Cancer HOP-92.
[2] abbreviates: Non-Small Cell Lung Cancer subpanel.

Structures are written as SMILES.

Usually GI50 stands for the concentration giving 50% growth inhibition. Broadly, the LC50 is the concentration lethal to half of the exposed cells or organisms. Lower therefore signals a more lethal substance. One may read the TGI as the concentration giving total growth inhibition.

For the compound `CN(C)c1nc2ccccc2c2c1-c1ccc(Cl)cc1C2=O` [SJ-2, 9-Chloro-6-(dimethylamino)-11H-indeno[1,2-c]quinolin-11-one], the “solubility in DMSO” value in the data set “Solubility in DMSO” is “poor”. The growth percentage in the data set with HOP-92 is given as 44.26%; in the data set with SK-MEL-2, 95.09%.

Consider `CCN(CC)CCNc1nc2ccccc2c2c1-c1ccc(Cl)cc1C2=O` [SJ-3, 6-(2-(Diethylamino)ethylamino)-9-chloro-11H-indeno[1,2-c]quinolin-11-one], for which the “solubility in DMSO” value in “Solubility in DMSO” is “poor”. The GI50 in the data set with HOP-92 (setting [1]) worked out at 3.08 µM; in the data set on SK-MEL-2, 37.7 µM. Further, the LC50 with HOP-92 (setting [1]) was 25.1 µM. Moreover, the TGI was 5.80 µM with HOP-92 (Non-Small Cell Lung Cancer HOP-92) and 4.73 µM with SK-MEL-2. For the same compound, the CC50 with SK-MEL-2 was found to be 10.4 µM. The “Selectivity ratio (MID^a:MID^b)” value in the data set on 60 cancer cell lines (Breast Cancer subpanel) amounted to 1.159; in the data set with 60 cancer cell lines (CNS Cancer subpanel) it was 0.962; in the data set with 60 cancer cell lines (Colon Cancer subpanel), 0.778; in the data set with 60 cancer cell lines (Leukemia subpanel), 1.475; in the data set on 60 cancer cell lines (Melanoma subpanel), 0.914; in the data set with 60 cancer cell lines (setting [2]), 1.210. Besides, the “Selectivity ratio (MID^a:MID^b)” value in the data set with 60 cancer cell lines (Ovarian Cancer subpanel) amounted to 0.820; in the data set on 60 cancer cell lines (Prostate Cancer subpanel), 0.914; with 60 cancer cell lines (Renal Cancer subpanel), 1.124. Besides, the “Subpanel MID^b (average sensitivity of all cell line of a particular subpanel)” value (from here on “Subpanel MID^b”) in the data set with 60 cancer cell lines (Breast Cancer subpanel) stood at 12.345 µM; with 60 cancer cell lines (CNS Cancer subpanel), 14.875 µM; with 60 cancer cell lines (Colon Cancer subpanel) it was 18.400 µM; in the data set with 60 cancer cell lines (Leukemia subpanel) it was 9.696 µM; with 60 cancer cell lines (Melanoma subpanel) it was 15.654 µM; in the data set with 60 cancer cell lines (setting [2]), 11.819 µM. Moreover, the “Subpanel MID^b” value in the data set on 60 cancer cell lines (Ovarian Cancer subpanel) was 17.448 µM; in the data set on 60 cancer cell lines (Prostate Cancer subpanel), 15.650 µM; in the data set on 60 cancer cell lines (Renal Cancer subpanel), 12.733 µM. Besides, the “MID^a (average sensitivity of all cell line)” value in the data set on 60 cancer cell lines came out at 14.306 µM.

On to `O=C1c2cc(Cl)ccc2-c2c(N3CCOCC3)nc3ccccc3c21` [SJ-8, 9-Chloro-6-morpholino-11H-indeno[1,2-c]quinolin-11-one], for which the values for the growth percentage in the data set with HOP-92 and with SK-MEL-2 were 66.08% and 104.29%, respectively.

The compound `O=C1c2cc(Cl)ccc2-c2c(N3CCNCC3)nc3ccccc3c21` [SJ-10, 9-Chloro-6-(piperazin-1-yl)-11H-indeno[1,2-c]quinolin-11-one] had a GI50 in the data set with SK-MEL-2 of 7.36 µM. Also, the CC50 in the data set with SK-MEL-2 was above 100 µM. In the data set with SK-MEL-2, this compound returned a TGI above 100 µM. The “Selectivity ratio (MID^a:MID^b)” value in the data set with 60 cancer cell lines (Breast Cancer subpanel) turned out to be 1.541; with 60 cancer cell lines (CNS Cancer subpanel) it was 1.304; in the data set with 60 cancer cell lines (Colon Cancer subpanel) it was 1.075; in the data set on 60 cancer cell lines (Leukemia subpanel), 0.954; in the data set on 60 cancer cell lines (Melanoma subpanel), 0.528; with 60 cancer cell lines (setting [2]) it was 1.621. The “Selectivity ratio (MID^a:MID^b)” value came to 0.772 in the data set on 60 cancer cell lines (Ovarian Cancer subpanel), 1.959 with 60 cancer cell lines (Prostate Cancer subpanel) and 1.648 with 60 cancer cell lines (Renal Cancer subpanel). Further, the “Subpanel MID^b” value in the data set with 60 cancer cell lines (Breast Cancer subpanel) was determined as 6.813 µM; in the data set with 60 cancer cell lines (CNS Cancer subpanel), 8.053 µM; with 60 cancer cell lines (Colon Cancer subpanel), 9.763 µM; in the data set on 60 cancer cell lines (Leukemia subpanel), 11.000 µM; in the data set on 60 cancer cell lines (Melanoma subpanel) it was 19.894 µM; with 60 cancer cell lines (setting [2]), 6.477 µM. Besides, the entries for the “Subpanel MID^b” value in the data set with 60 cancer cell lines (Ovarian Cancer subpanel), in the data set on 60 cancer cell lines (Prostate Cancer subpanel) and in the data set with 60 cancer cell lines (Renal Cancer subpanel) were 13.591 µM, 5.360 µM and 6.370 µM, respectively. In addition, the “MID^a (average sensitivity of all cell line)” value in the data set with 60 cancer cell lines came out at 10.498 µM.

For the compound `CN1CCN(c2nc3ccccc3c3c2-c2ccc(Cl)cc2C3=O)CC1` [SJ-12, 9-Chloro-6-(4-methylpiperazin-1-yl)-11H-indeno[1,2-c]quinolin-11-one], the results for the growth percentage in the data set with HOP-92 and in the data set on SK-MEL-2 were 38.50% and 104.36%, respectively.

Consider `O=C1c2cc(Cl)ccc2-c2c(SCCO)nc3ccccc3c21` [SJ-25, 6-(2-Hydroxyethylthio)-9-chloro-11H-indeno[1,2-c]quinolin-11-one], for which the growth percentage in the data set with EKVX worked out at 30.15%; in the data set with SK-MEL-2 it was 95.85%.

With `O=C1c2cc(Cl)ccc2-c2c(O)nc3ccccc3c21` [SJ-26, 6-Hydroxy-9-chloro-11H-indeno[1,2-c]quinolin-11-one], the growth percentage with EKVX is 72.14%; with SK-MEL-2 it was 117.12%.

Regarding `COc1nc2ccccc2c2c1-c1ccc(Cl)cc1C2=O` [SJ-27, 6-Methoxy-9-chloro-11H-indeno[1,2-c]quinolin-11-one], the growth percentage in the data set with HOP-92 was 77.75%; in the data set on SK-MEL-2, 109.44%.

Consider `O=C1c2cc(Cl)ccc2-c2c(Cl)nc3ccccc3c21` [TC-XCl-1, 6,9-Dichloro-11H-indeno[1,2-c]quinolin-11-one], for which the growth percentage in the data set with EKVX came out at 79.27%; with HOP-92, 71.94%; with SK-MEL-2 it was 117.11%.
